The values that follow come from patent US20110082130A1 (LIGAND PHARMACEUTICALS, INC., priority 2006, published 2011).

What is called inhibition is how much of the control response was suppressed.

Structures are written as SMILES.

The target in one test is T1, chimeric human H3 receptor (Homo sapiens, UniProt Q9Y5N1).
T1 construct: made in house; host or cells: Sf9 insect cells (baculovirus); P2 membrane preparation
T1 sequence (Q9Y5N1 with tags, fused parts or gaps): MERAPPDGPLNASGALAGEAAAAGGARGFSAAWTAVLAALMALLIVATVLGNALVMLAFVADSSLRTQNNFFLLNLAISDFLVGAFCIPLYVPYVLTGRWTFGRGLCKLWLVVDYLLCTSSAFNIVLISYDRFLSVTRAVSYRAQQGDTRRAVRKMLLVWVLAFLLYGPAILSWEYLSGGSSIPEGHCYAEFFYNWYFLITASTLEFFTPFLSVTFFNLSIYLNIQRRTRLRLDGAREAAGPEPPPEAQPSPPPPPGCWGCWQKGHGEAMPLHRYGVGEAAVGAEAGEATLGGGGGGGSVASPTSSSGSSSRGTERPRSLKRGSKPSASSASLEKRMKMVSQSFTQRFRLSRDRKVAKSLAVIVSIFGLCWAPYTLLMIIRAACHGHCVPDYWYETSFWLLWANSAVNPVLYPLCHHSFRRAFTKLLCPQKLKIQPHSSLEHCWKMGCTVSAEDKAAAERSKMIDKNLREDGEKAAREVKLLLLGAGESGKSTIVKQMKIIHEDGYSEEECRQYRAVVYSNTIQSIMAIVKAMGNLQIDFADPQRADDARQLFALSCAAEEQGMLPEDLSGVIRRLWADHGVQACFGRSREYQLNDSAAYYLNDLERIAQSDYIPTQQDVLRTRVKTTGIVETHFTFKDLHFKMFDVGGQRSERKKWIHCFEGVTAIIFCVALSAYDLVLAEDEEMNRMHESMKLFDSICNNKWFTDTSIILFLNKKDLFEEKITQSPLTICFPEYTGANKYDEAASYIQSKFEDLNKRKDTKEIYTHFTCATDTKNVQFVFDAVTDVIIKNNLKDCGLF
Put plainly: Chimeric human H3 receptor screening GTP binding assay (inhibition of histamine-stimulated GTP-gamma35S binding, Example 8). It is filed as biochemical. Conditions: 4 μM of the compound, 1 μM histamine, "†" in Ki of Table II, read-out: percent inhibition of the signal obtained with 1 μM histamine. A digest of the protocol: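 Values are percent inhibition of 1 μM histamine-stimulated GTP-gamma35S […] binding, with non-specific binding (10 μM GTP-gammaS) subtracted, by compounds tested at 4 μM. Membranes (35 μg) from Sf9 cells expressing chimeric human H3 with G-protein subunits were used in Tris pH 7.4 buffer with 10 μM GDP. Incubation lasted 60 min at room temperature, followed by filtration and scintillation counting.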
(In general: Binding of GTPγS marks nucleotide exchange on a G protein.)
For the molecule `O=C(CN1CCc2cc(-c3ccccc3)ccc2C1)N1CCN(C2CCCCC2)CC1` [Compound 400, 2-[2-(4-cyclohexylpiperazin-1-yl)-2-oxoethyl]-6-phenyl-1,2,3,4-tetrahydroisoquinoline], the inhibition at 4 µM is not below 90%.

In the case of `O=C(CN1CCc2cc(-c3cccc4c3oc3ccccc34)ccc2C1)N1CCN(C2CCC2)CC1` [Compound 388, 2-[2-(4-cyclobutylpiperazin-1-yl)-2-oxoethyl]-6-dibenzo[b,d]furan-4-yl-1,2,3,4-tetrahydroisoquinoline], the inhibition at 4 µM was not below 90%. On the same count and under the same terms, then `CC(C)N1CCN(C(=O)CN2CCc3cc(-c4cccc(F)c4)ccc3C2)CC1` [Compound 413, 6-(3-fluorophenyl)-2-[2-(4-isopropylpiperazin-1-yl)-2-oxoethyl]-1,2,3,4-tetrahydroisoquinoline], with not below 90%; and `O=C(CN1CCc2cc(-c3ccc(OC(F)(F)F)cc3)ccc2C1)N1CCN(C2CCCCC2)CC1` [Compound 480, 2-[2-(4-cyclohexylpiperazin-1-yl)-2-oxoethyl]-6-[4-(trifluoromethoxy)phenyl]-1,2,3,4-tetrahydroisoquinoline], with not below 90%; and `O=C(CN1CCc2cc(-c3ccc(F)cc3)ccc2C1)N1CCN(C2CCCC2)CC1` [Compound 408, 2-[2-(4-cyclopentylpiperazin-1-yl)-2-oxoethyl]-6-(4-fluorophenyl)-1,2,3,4-tetrahydroisoquinoline], with not below 90%.

With `O=C(CN1CCc2cc(-c3ccc(F)cc3)ccc2C1)N1CCN(C2CCCCC2)CC1` [Compound 409, 2-[2-(4-cyclohexylpiperazin-1-yl)-2-oxoethyl]-6-(4-fluorophenyl)-1,2,3,4-tetrahydroisoquinoline], the inhibition at 4 µM is not below 90%. On the same count and under the same terms, to `CCCc1ccc(-c2ccc3c(c2)CCN(CC(=O)N2CCN(C4CCC4)CC2)C3)cc1` [Compound 463, 2-[2-(4-cyclobutylpiperazin-1-yl)-2-oxoethyl]-6-(4-propylphenyl)-1,2,3,4-tetrahydroisoquinoline] belongs not below 90%; to `O=C(CN1CCc2cc(-c3ccccc3F)ccc2C1)N1CCN(C2CCCC2)CC1` [Compound 415, 2-[2-(4-cyclopentylpiperazin-1-yl)-2-oxoethyl]-6-(2-fluorophenyl)-1,2,3,4-tetrahydroisoquinoline], not below 90%; to `CC(C)c1cccc(-c2ccc3c(c2)CCN(CC(=O)N2CCN(C4CCC4)CC2)C3)c1` [Compound 439, 2-[2-(4-cyclobutylpiperazin-1-yl)-2-oxoethyl]-6-(3-isopropylphenyl)-1,2,3,4-tetrahydroisoquinoline], not below 90%. For `Cc1ccc(-c2ccc3c(c2)CCN(CC(=O)N2CCN(C4CCCCC4)CC2)C3)cc1` [Compound 437, 2-[2-(4-cyclohexylpiperazin-1-yl)-2-oxoethyl]-6-(4-methylphenyl)-1,2,3,4-tetrahydroisoquinoline], the inhibition at 4 µM is not below 90%.

Consider `CC(C)N1CCN(C(=O)CN2CCc3cc(-c4ccc5ccccc5c4)ccc3C2)CC1` [Compound 419, 2-[2-(4-isopropylpiperazin-1-yl)-2-oxoethyl]-6-(2-naphthyl)-1,2,3,4-tetrahydroisoquinoline], for which the inhibition at 4 µM is not below 90%. Take `O=C(CN1CCc2cc(-c3ccc(OC(F)(F)F)cc3)ccc2C1)N1CCN(C2CCC2)CC1` [Compound 478, 2-[2-(4-cyclobutylpiperazin-1-yl)-2-oxoethyl]-6-[4-(trifluoromethoxy)phenyl]-1,2,3,4-tetrahydroisoquinoline]: the inhibition at 4 µM was not below 90%. Still for that read-out and setting: then `O=C(CN1CCc2cc(-c3ccccc3)ccc2C1)N1CCN(C2CCC2)CC1` [Compound 398, 2-[2-(4-cyclobutylpiperazin-1-yl)-2-oxoethyl]-6-phenyl-1,2,3,4-tetrahydroisoquinoline], with not below 90%; and `Cc1cc(C)cc(-c2ccc3c(c2)CCN(CC(=O)N2CCN(C4CCC4)CC2)C3)c1` [Compound 455, 2-[2-(4-cyclobutylpiperazin-1-yl)-2-oxoethyl]-6-(3,5-dimethylphenyl)-1,2,3,4-tetrahydroisoquinoline], with not below 90%.

Still in this test, the particulars now being: Table II "Ki", symbol †, 4 μM of the compound, 1 μM histamine, read-out: percent inhibition of the signal obtained with 1 μM histamine.
Regarding `COc1ccc(Cl)cc1-c1ccc2c(c1)CCN(CC(=O)N1CCN(C3CCCCC3)CC1)C2` [Compound 558, 6-(5-chloro-2-methoxyphenyl)-2-[2-(4-cyclohexylpiperazin-1-yl)-2-oxoethyl]-1,2,3,4-tetrahydroisoquinoline], the inhibition at 4 µM is not below 90%.

As to `O=C(CN1CCc2cc(-c3cccc(OC(F)(F)F)c3)ccc2C1)N1CCN(C2CCCC2)CC1` [Compound 491, 2-[2-(4-cyclopentylpiperazin-1-yl)-2-oxoethyl]-6-[3-(trifluoromethoxy)phenyl]-1,2,3,4-tetrahydroisoquinoline], the inhibition at 4 µM was not below 90%. The same measure, in the same setting: to `O=C(CN1CCc2cc(-c3cncnc3)ccc2C1)N1CCN(C2C[C@H]3CC[C@@H]2C3)CC1` (stereo partly drawn) [Compound 623, 2-(2-{4-[(1R,4S)-bicyclo[2.2.1]hept-2-yl]piperazin-1-yl}-2-oxoethyl)-6-pyrimidin-5-yl-1,2,3,4-tetrahydroisoquinoline] belongs not below 90%; to `CCCOCCNc1ccc2c(n1)CCN(CC(=O)N1CCN(C3CCC3)CC1)C2` [Compound 669, 6-[2-(4-cyclobutylpiperazin-1-yl)-2-oxoethyl]-N-(2-propoxyethyl)-5,6,7,8-tetrahydro-1,6-naphthyridin-2-amine], not below 90%; to `COc1cc(F)c(-c2ccc3c(c2)CCN(CC(=O)N2CCN(C(C)C)CC2)C3)cc1F` [Compound 508, 6-(2,5-difluoro-4-methoxyphenyl)-2-[2-(4-isopropylpiperazin-1-yl)-2-oxoethyl]-1,2,3,4-tetrahydroisoquinoline], not below 90%. The same measure, in the same setting: to `CC(C1CC1)N1CCN(C(=O)CN2CCc3cc(-c4cncnc4)ccc3C2)CC1` (centres unmarked) [Compound 609, 2-{2-[4-(1-cyclopropylethyl)piperazin-1-yl]-2-oxoethyl}-6-pyrimidin-5-yl-1,2,3,4-tetrahydroisoquinoline] belongs not below 90%.

`CCOc1ccccc1-c1ccc2c(c1)CCN(CC(=O)N1CCN(C(C)C)CC1)C2` [Compound 569, 6-(2-ethoxyphenyl)-2-[2-(4-isopropylpiperazin-1-yl)-2-oxoethyl]-1,2,3,4-tetrahydroisoquinoline]: the inhibition at 4 µM is not below 90%. Take `O=C(CN1CCc2cc(-c3cccc(OC(F)(F)F)c3)ccc2C1)N1CCN(C2CCC2)CC1` [Compound 490, 2-[2-(4-cyclobutylpiperazin-1-yl)-2-oxoethyl]-6-[3-(trifluoromethoxy)phenyl]-1,2,3,4-tetrahydroisoquinoline]: the inhibition at 4 µM was not below 90%. Same read-out and setting: to `CCOc1ccc(-c2ccc3c(c2)CCN(CC(=O)N2CCN(C4CCCCC4)CC2)C3)cc1` [Compound 530, 2-[2-(4-cyclohexylpiperazin-1-yl)-2-oxoethyl]-6-(4-ethoxyphenyl)-1,2,3,4-tetrahydroisoquinoline] belongs not below 90%. On the same count and under the same terms, to `CN(CC#N)c1ccc2c(n1)CCN(CC(=O)N1CCN(C3CCC3)CC1)C2` [Compound 680, [{6-[2-(4-cyclobutylpiperazin-1-yl)-2-oxoethyl]-5,6,7,8-tetrahydro-1,6-naphthyridin-2-yl}(methyl)amino] acetonitrile] belongs not below 90%; to `CSc1cccc(-c2ccc3c(c2)CCN(CC(=O)N2CCN(C4CCCC4)CC2)C3)c1` [Compound 495, 2-[2-(4-cyclopentylpiperazin-1-yl)-2-oxoethyl]-6-[3-(methylthio)phenyl]-1,2,3,4-tetrahydroisoquinoline], not below 90%. The same measure, in the same setting: to `COc1ccc(C)cc1-c1ccc2c(c1)CCN(CC(=O)N1CCN(C3CCC3)CC1)C2` [Compound 572, 2-[2-(4-cyclobutylpiperazin-1-yl)-2-oxoethyl]-6-(2-methoxy-5-methylphenyl)-1,2,3,4-tetrahydroisoquinoline] belongs not below 90%; to `C[C@H]1CN(C(=O)CN2CCc3cc(-c4cncnc4)ccc3C2)CCN1C1CCOCC1` [Compound 622, 2-{2-[(3S)-3-methyl-4-(tetrahydro-2H-pyran-4-yl)piperazin-1-yl]-2-oxoethyl}-6-pyrimidin-5-yl-1,2,3,4-tetrahydroisoquinoline], not below 90%; to `O=C(CN1CCc2cc(-c3ccc(Oc4ccccc4)cc3)ccc2C1)N1CCN(C2CCCC2)CC1` [Compound 487, 2-[2-(4-cyclopentylpiperazin-1-yl)-2-oxoethyl]-6-(4-phenoxyphenyl)-1,2,3,4-tetrahydroisoquinoline], not below 90%. On to `O=C(CN1CCc2cc(-c3cccc(OC(F)(F)F)c3)ccc2C1)N1CCN(C2CCCCC2)CC1` [Compound 492, 2-[2-(4-cyclohexylpiperazin-1-yl)-2-oxoethyl]-6-[3-(trifluoromethoxy)phenyl]-1,2,3,4-tetrahydroisoquinoline], for which the inhibition at 4 µM was not below 90%. For the molecule `O=C(CN1CCc2cc(-c3cc(Cl)cc(Cl)c3)ccc2C1)N1CCN(C2CCC2)CC1` [Compound 592, 2-[2-(4-cyclobutylpiperazin-1-yl)-2-oxoethyl]-6-(3,5-dichlorophenyl)-1,2,3,4-tetrahydroisoquinoline], the inhibition at 4 µM was not below 90%. As for `Cc1cc(F)ccc1-c1ccc2c(c1)CCN(CC(=O)N1CCN(C3CCC3)CC1)C2` [Compound 626, 2-[2-(4-cyclobutylpiperazin-1-yl)-2-oxoethyl]-6-(4-fluoro-2-methylphenyl)-1,2,3,4-tetrahydroisoquinoline], the inhibition at 4 µM is not below 90%. Still for that read-out and setting: then `COc1ccc(C(C)C)cc1-c1ccc2c(c1)CCN(CC(=O)N1CCN(C3CCCCC3)CC1)C2` [Compound 556, 2-[2-(4-cyclohexylpiperazin-1-yl)-2-oxoethyl]-6-(5-isopropyl-2-methoxyphenyl)-1,2,3,4-tetrahydroisoquinoline], with not below 90%.
